What was measured:
Type in all cases: cell-based, human
[1] = system: C4-2B cells; assay: C4-2B cell proliferation, ASO in combination with MDV3100 (Example 21); details: for Proliferation (% untreated control) in C4-2B without MDV-3100: 5 days
Protocol: C4-2B cells were plated at 1,000 cells per well. […] ISIS 549148 was included as a negative control. […] After a treatment period of 5 days, the proliferative capacity of the cancer cells was measured with CellTiter 96® AQueous One Solution Cell Proliferation kit (Promega), following the manufacturer's instructions. […]

[2] = system: prostate-specific antigen (PSA) mRNA; assay: Time-course PSA expression in C4-2B cells
Protocol: C4-2B cells were plated at 1,000 cells per well in complete medium. […] ISIS 549148 was included as a negative control. […] After a treatment period of 8 hours, 24 hours, and 48 hours, AR expression was measured with primer probe set hAR-LTS00943. Results are presented in Tables 70-72 as percent expression of AR, relative to non-treated cells.
Expression analysis of prostate-specific antigen (PSA) and TMPRSS2 were also analyzed. Results are presented in Tables 73-75 as percent inhibition of PSA expression and Tables 76-78 as percent inhibition of TMPRSS2 expression, relative to non-treated cells.

[3] = system: AR mRNA; assay: AR RNA expression in C4-2 cells (complete, CSS+DHT medium); details: 48 hrs; for Percent expression of AR: C4-2 cells, CSS + DHT medium
Protocol: Cells were plated at 1,000 cells per well. […] After an incubation period of 48 hrs, RNA levels of AR, PSA and TMPRSS2 were measured.
Cells were plated at 2,000 cells per well and cultured in CSS media with 1 nM DHT. […] After an incubation period of 48 hrs, RNA levels of AR, PSA and TMPRSS2 were measured.

[4] = system: TMPRSS2 mRNA; assay: TMPRSS2 expression in C4-2B cells (Example 30); details: 48 hrs
Protocol: Cells were plated at 1,000 cells per well. […] ISIS 549148 was included as a negative control. […] After an incubation period of 48 hrs, RNA levels of AR, PSA and TMPRSS2 were measured.
Cells were plated at 2,000 cells per well and cultured in CSS media with 1 nM DHT. […] ISIS 549148 was included as a negative control. […] After an incubation period of 48 hrs, RNA levels of AR, PSA and TMPRSS2 were measured. In the absence of DHT, AR expression in C4-2 cells was 188%, PSA expression was 43% and TMPRSS2 expression was 27% compared to the untreated control.

[5] = system: AR V7 variant mRNA; assay: AR V7 variant RNA in VCaP cells; details: RNAiMax, 48 hrs
Protocol: Cells were plated at 10,000 cells per well. […] ISIS 549148 was included as a negative control. After an incubation period of 48 hrs, RNA levels of full length AR, the V7 variant, PSA and TMPRSS2 were measured.
A separate set of cells was treated with MDV-3100 at 0.04 μM, 0.2 μM, 1.0 μM, or 5.0 μM. After an incubation period of 48 hrs, RNA levels of full length AR, the V7 variant, PSA and TMPRSS2 were measured. The data is presented in Tables 108 expressed as percent expression of gene levels compared to the untreated control.
Cells were plated at 15,000 cells per well and cultured in CSS media for 16 hours. […] ISIS 549148 was included as a negative control. After 4 hrs, 1 nM DHT was added. […] After an incubation period of 48 hrs, RNA levels of AR, PSA and TMPRSS2 were measured. […]

[6] = system: VCaP cells; assay: VCaP apoptosis (Caspase-Glo 3/7); details: VCaP cells, complete medium, 72 hours
Protocol: After a treatment period of 72 hours in complete medium, apoptosis of the cancer cells was measured with Caspase-Glo 3/7 assay (Promega). Results are presented in Tables 117 and 118 as percent apoptosis of the cells, relative to non-treated cells.

[7] = system: PSA mRNA; assay: PSA expression in 22RV1 cells; details: RNAiMax, 48 hrs
Protocol: Cells were plated at 1,000 cells per well. […] After an incubation period of 48 hrs, RNA levels of full length AR, the V7 variant, PSA and TMPRSS2 were measured.
After an incubation period of 48 hrs, RNA levels of full length AR, the V7 variant, PSA and TMPRSS2 were measured.
Cells were plated at 2,000 cells per well and cultured in CSS media for 16 hours. […] After 4 hrs, 1 nM DHT was added. […] After an incubation period of 48 hrs, RNA levels of AR, AR V7 variant, PSA and TMPRSS2 were measured.

## GGCTACTACGCCGTCA (3-10-3 (S)-cEt gapmer, chemistry not fully specified) [ISIS 549148, reference compound]
[1]; ASO dose 0.04 μM + 0.08 μM MDV-3100
  Proliferation (% untreated control) in C4-2B with 0.08 μM MDV-3100: 125 % untreated control
[1]; ASO dose 0.04 μM + 0.4 μM MDV-3100
  Proliferation (% untreated control) in C4-2B with 0.4 μM MDV-3100: 110 % untreated control
[1]; ASO dose 0.04 μM + 2.0 μM MDV-3100
  Proliferation (% untreated control) in C4-2B with 2.0 μM MDV-3100: 40 % untreated control
[1]; ASO dose 0.04 μM + […] MDV-3100
  Proliferation (% untreated control) in C4-2B with […] MDV-3100: 107 % untreated control
[1]; ASO dose 0.04 μM
  Proliferation (% untreated control) in C4-2B without MDV-3100: 117 % untreated control
[1]; ASO dose 0.08 μM + 0.08 μM MDV-3100
  Proliferation (% untreated control) in C4-2B with 0.08 μM MDV-3100: 84 % untreated control
[1]; ASO dose 0.08 μM + 0.4 μM MDV-3100
  Proliferation (% untreated control) in C4-2B with 0.4 μM MDV-3100: 89 % untreated control
[1]; ASO dose 0.08 μM + 2.0 μM MDV-3100
  Proliferation (% untreated control) in C4-2B with 2.0 μM MDV-3100: 47 % untreated control
[1]; ASO dose 0.08 μM + […] MDV-3100
  Proliferation (% untreated control) in C4-2B with […] MDV-3100: 110 % untreated control
[1]; ASO dose 0.08 μM
  Proliferation (% untreated control) in C4-2B without MDV-3100: 111 % untreated control
[1]; ASO dose 0.2 μM + 0.08 μM MDV-3100
  Proliferation (% untreated control) in C4-2B with 0.08 μM MDV-3100: 123 % untreated control
[1]; ASO dose 0.2 μM + 0.4 μM MDV-3100
  Proliferation (% untreated control) in C4-2B with 0.4 μM MDV-3100: 88 % untreated control
[1]; ASO dose 0.2 μM + 2.0 μM MDV-3100
  Proliferation (% untreated control) in C4-2B with 2.0 μM MDV-3100: 52 % untreated control
[1]; ASO dose 0.2 μM + […] MDV-3100
  Proliferation (% untreated control) in C4-2B with […] MDV-3100: 124 % untreated control
[1]; ASO dose 0.2 μM
  Proliferation (% untreated control) in C4-2B without MDV-3100: 118 % untreated control
[1]; ASO dose 1.0 μM + 0.08 μM MDV-3100
  Proliferation (% untreated control) in C4-2B with 0.08 μM MDV-3100: 114 % untreated control
[1]; ASO dose 1.0 μM + 0.4 μM MDV-3100
  Proliferation (% untreated control) in C4-2B with 0.4 μM MDV-3100: 88 % untreated control
[1]; ASO dose 1.0 μM + 2.0 μM MDV-3100
  Proliferation (% untreated control) in C4-2B with 2.0 μM MDV-3100: 59 % untreated control
[1]; ASO dose 1.0 μM + […] MDV-3100
  Proliferation (% untreated control) in C4-2B with […] MDV-3100: 103 % untreated control
[1]; ASO dose 1.0 μM
  Proliferation (% untreated control) in C4-2B without MDV-3100: 126 % untreated control
[2]; 0.04 μM
  Percent inhibition of PSA expression compared to the control group in 8 hours: 1%
  Percent inhibition of PSA expression compared to the control group in 24 hours: 22%
  Percent inhibition of PSA expression compared to the control group in 48 hours: 2%
[2]; 0.2 μM
  Percent inhibition of PSA expression compared to the control group in 8 hours: 8%
  Percent inhibition of PSA expression compared to the control group in 24 hours: 13%
  Percent inhibition of PSA expression compared to the control group in 48 hours: 0%
[2]; 1 μM
  Percent inhibition of PSA expression compared to the control group in 8 hours: 8%
  Percent inhibition of PSA expression compared to the control group in 24 hours: 16%
  Percent inhibition of PSA expression compared to the control group in 48 hours: 18%
[2]; 5.0 μM
  Percent inhibition of PSA expression compared to the control group in 8 hours: 0%
  Percent inhibition of PSA expression compared to the control group in 24 hours: 6%
  Percent inhibition of PSA expression compared to the control group in 48 hours: 10%
[3]; 0.04 μM
  Percent expression of AR: 101%
  Percent expression of AR in C4-2 cells cultured in complete medium: 89%
[3]; 0.2 μM
  Percent expression of AR: 101%
  Percent expression of AR in C4-2 cells cultured in complete medium: 90%
[3]; 1 μM
  Percent expression of AR: 118%
  Percent expression of AR in C4-2 cells cultured in complete medium: 84%
[3]; 5.0 μM
  Percent expression of AR in C4-2 cells cultured in complete medium: 86%
[4]; CSS + DHT medium, 0.04 μM
  Percent inhibition of TMPRSS2 expression: 0%
[4]; CSS + DHT medium, 0.2 μM
  Percent inhibition of TMPRSS2 expression: 0%
[4]; CSS + DHT medium, 1 μM
  Percent inhibition of TMPRSS2 expression: 0%
[4]; CSS + DHT medium, 5.0 μM
  Percent inhibition of TMPRSS2 expression: 3%
[4]; complete medium, 0.04 μM
  Percent inhibition of TMPRSS2 expression: 0%
[4]; complete medium, 0.2 μM
  Percent inhibition of TMPRSS2 expression: 2%
[4]; complete medium, 1 μM
  Percent inhibition of TMPRSS2 expression: 4%
[4]; complete medium, 5.0 μM
  Percent inhibition of TMPRSS2 expression: 0%
[5]; CSS + DHT medium, 1.34 nM
  Percent inhibition of AR V7 variant: 12%
[5]; CSS + DHT medium, 4.0 nM
  Percent inhibition of AR V7 variant: 0%
[5]; CSS + DHT medium, 13.4 nM
  Percent inhibition of AR V7 variant: 0%
[5]; CSS + DHT medium, 40 nM
  Percent inhibition of AR V7 variant: 5%
[5]; complete medium, 1.34 nM
  Percent inhibition of AR V7 variant: 0%
[5]; complete medium, 4.0 nM
  Percent inhibition of AR V7 variant: 8%
[5]; complete medium, 13.4 nM
  Percent inhibition of AR V7 variant: 0%
[5]; complete medium, 40 nM
  Percent inhibition of AR V7 variant: 14%
[6]; 1.34 nM
  Apoptosis (% untreated control): 131 % untreated control
[6]; 4.0 nM
  Apoptosis (% untreated control): 108 % untreated control
[6]; 13.4 nM
  Apoptosis (% untreated control): 103 % untreated control
[6]; 40 nM
  Apoptosis (% untreated control): 146 % untreated control
[7]; CSS + DHT medium, 1.34 nM
  Percent inhibition of PSA expression: 8%
[7]; CSS + DHT medium, 4.0 nM
  Percent inhibition of PSA expression: 23%
[7]; CSS + DHT medium, 13.4 nM
  Percent inhibition of PSA expression: 29%
[7]; complete medium, 1.34 nM
  Percent inhibition of PSA expression: 9%
[7]; complete medium, 4.0 nM
  Percent inhibition of PSA expression: 11%
[7]; complete medium, 13.4 nM
  Percent inhibition of PSA expression: 17%
[7]; complete medium, 40 nM
  Percent inhibition of PSA expression: 27%

Reference: patent publication USRE48461E1, “Modulation of androgen receptor expression” (Ionis Pharmaceuticals, Inc., priority 2012, dated 2021)
